# According to patent US8084431B2, “Method for inhibiting activation of macrophages, inhibiting formation of osteoclasts, inhibiting function of osteoclasts, and/or activating osteoblasts” (China Medical University, priority 2008, dated 2011):
# Marks after values point to notes of the source that are not given here.
# Columns and labels:
# [1] = test system: MMP-9 (metalloproteinases 9); assay: RT-PCR of MMP-9 mRNA in RANKL-treated macrophages RAW 264.7; type: cell-based; details: kinsenoside 50 μM, RANKL 50 ng/ml, 24, 48, 72 hours, FIG. 8A and 8B
# Protocol: As osteoclasts are activated, they RELEASE MMP-9 (metalloproteinases 9) to erode collagen in bones. Using RT-PCR to analyze the expression of mRNA of MMP-9, one can see if kinsenoside inhibits the bone resorption activity of osteoclasts.
# As macrophages RAW 264.7 were incubated in culture plates containing 50 ng/ml of RANKL, 50 μM of kinsenoside was added thereto. After the macrophages RAW 264.7 were incubated for 24, 48, and 72 hours, mRNAs were extracted to analyze the expression of MMP-9 with RT-PCR. […] Thus, kinsenoside can inhibit the bone resorption of osteoclasts.
# [2] = test system: ICR mice administrated with lipopolysaccharides; assay: Septic shock death of ICR mice induced by high dosage of lipopolysaccharides; type: in vivo; details: kinsenoside 100 or 300 mg/kg intraperitoneal, LPS 80 mg/kg, FIG. 4
# Protocol: ICR mice were intraperitoneally administrated with various dosages (100 mg/kg or 300 mg/kg) of kinsenoside. 30 minutes later, the ICR mice were intraperitoneally administrated with 80 mg/kg of lipopolysaccharides, and the death rate of the ICR mice within 72 hours was observed.
# [3] = test system: BALB/c mice with collagen-induced rheumatoid arthritis; assay: Collagen-induced rheumatoid arthritis of BALB/c mice; type: in vivo; details: for CD4/278 (ratio of Th2 cells) / CD19/45 (ratio of B cells) / the number of lymphocytes: inguinal lymph nodes; for IgE / IgG1 / TNF-α: serum
# Protocol: BALB/c mice were purchased from the National Laboratory Animal Center, Taiwan. 200 μg of type-IT collagen (Sigma) was subcutaneously injected into the tails of the BALB/c mice to induce the rheumatoid arthritis, wherein type-II collagen was emulsified with a Freund's complete adjuvant (Sigma) previously. At the […], 200 μg of type-II collagen was subcutaneously injected into the tails of the BALB/c mice again, and type-II collagen was emulsified with a Freund's incomplete adjuvant (Sigma) previously. From the day of the second injection, the BALB/c mice were administrated orally with kinsenoside (100 or 300 mg/kg) daily for 21 days. After 21 days, the BALB/c mice were sacrificed, and the blood, inguinal lymph nodes, and soles comprising joints of the BALB/c mice were collected for assay.
# The concentrations of TNF-α and antibodies IgE and IgG1 in the serum were determined with ELISA method. Antibodies IgE and IgG1 reagents were purchased form Bethyl, Montgomery, Tex., USA.
# Lymph nodes were taken from the both sides of the groins of the BALB/c mice, and were sieved to produce a single suspended cell line. The number of lymphocytes was determined with a flow cytometer. In addition, B cells and Th2 cells were stained with antibodies CD19/45 and CD4/278 (eBioscience) to obtain the ratio of B cells and Th2 cells.
# The mRNAs were extracted from the right soles and joints of the mice, and the expression of the mRNAs of TNF-α was analyzed with RT-PCR (Reverse Transcription-Polymerase Chain Reaction).
# NF-κB = assay: EMSA of NF-κB entering nuclei in RANKL-activated macrophages RAW 264.7; type: cell-based; details: kinsenoside 10, 25, 50 μM, RANKL 50 ng/ml, 60 minutes, FIG. 7B and 7C
# Text: EMSA (Electrophoresis Mobility Shift Assay) was used to observe the mechanism of the inhibition effect of kinsenoside on the formation of osteoclasts. It is known that RANKL may activate macrophages RAW 264.7 to make NF-κB enter nuclei to stimulate macrophages RAW 264.7 to differentiate into osteoclasts (see Wada T, Nakashima T, Hiroshi N, Penninger J M. 2006. RANKL-RANK signaling in osteoclastogenesis and bone disease. Trends Mol. Med. 12, 17-25).
# The DNA sequences used in the EMSA assay are as follows:
# The macrophages RAW 264.7 were incubated for 60 minutes, and then proteins in the nuclei were extracted to be analyzed with EMSA. Herein, the DNA sequences used in the EMSA assay are the same as the above experiment.
# MC3T3-E1 cells [4] = assay: Alkaline phosphatase activity of MC3T3-E1 cells; type: cell-based
# Protocol: ALP (alkaline phosphatase) is a molecular indicator or molecular marker for the early stage of the activation of the precursor cells of osteoblasts, and according to the activity of ALP, the activation situation of the precursor cells of osteoblasts can observed. […] The MC3T3-E1 cells were incubated for 3, 5, and 10 days respectively, and then proteins in the cells were extracted. A p-nitrophenyl phosphate liquid substrate system reagent (Sigma) was used to determine the activity of ALP, and the result is shown in Table 13.
# [5] = test system: nitric oxide synthase (iNOs), p65, and p50 (NF-κB); assay: Western blot of iNOs, p65 and p50 in LPS-induced macrophages RAW 264.7; type: cell-based; details: kinsenoside 10, 50, 100 μM
# Protocol: (§1) 24 hours later, the supernatant was collected, and the content of nitric oxide was determined with a Griess reagent (Sigma). After macrophages RAW 264.7 were scratched off the culture plates, proteins were extracted, and then the expression of nitric oxide synthase (iNOs), p65, and p50 (nuclear factor kappa B or NF-κB, transcription factor) was analyzed with the western blot method.
# macrophages RAW 264.7 = assay: NO release of LPS-induced macrophages RAW 264.7 (Griess reagent); type: cell-based; details: 24 hours
# Protocol: as §1
# MC3T3-E1 cells [6] = assay: Mineralization of MC3T3-E1 cells (Alizarin red-S); type: cell-based; details: 14 days
# Protocol: 50 μg/ml of Vitamin C and 10 μM of β-glycerophosphatase were added into culture plates containing MC3T3-E1 cells, and the MC3T3-E1 cells were incubated for 14 days. After 14 days, the mineralization of the MC3T3-E1 cells occurred, and led to the deposition of calcium. Alizarin red-S (Sigma) was used to measure the content of calcium (see Gregory C A, Gunn W G, Peister A, Prockop D J. 2004. An Alizarin red-based assay of mineralization by adherent cells in culture: comparison with cetylpyridinium chloride extract. Anal. Biochem. 329, 77-84).
# 50 μg/ml of Vitamin C and 10 μM of 0-glycerophosphatase were added into culture plates containing MC3T3-E1 cells, and various concentrations (0, 100, and 1,000 nM) of kinsenoside were added into the culture plates, respectively. The MC3T3-E1 cells were incubated for 14 days, and Alizarin red-S was used to measure the content of calcium.
# [7] = kinsenoside 100 mg/kg oral daily for 21 days
# [8] = kinsenoside 300 mg/kg oral daily for 21 days
compound,measurement,setting,value
"O=C1C[C@@H](OC2OC(CO)C(O)C(O)C2O)CO1 (stereo partly drawn) [kinsenoside, 3-(R)-3-β-D-glucopyranosyloxy-butanolide]",expression of mRNA of MMP-9,[1],inhibits the expression of mRNA of MMP-9
same,death rate of the ICR mice within 72 hours,[2],inhibits the death rate
same,CD4/278 (ratio of Th2 cells),[3]; [7],8.0 ± 0.6 %
same,CD19/45 (ratio of B cells),[3]; [7],19.3 ± 2.1 %
same,the number of lymphocytes,[3]; [7],3.3 ± 0.6* 10^5/ml
same,CD4/278 (ratio of Th2 cells),[3]; [8],7.6 ± 0.6 %
same,CD19/45 (ratio of B cells),[3]; [8],18.6 ± 3.6 %
same,the number of lymphocytes,[3]; [8],2.8 ± 1.0*** 10^5/ml
same,expression of mRNAs of TNF-α,"[3]; right soles and joints, RT-PCR, kinsenoside 100 or 300 mg/kg oral, FIG. 5A and 5B",alleviates the expression of mRNAs of TNF-α
same,IgE,[3]; [7],0.15 ± 0.03 absorbance
same,IgG1,[3]; [7],2.44 ± 0.05 absorbance
same,TNF-α,[3]; [7],825.9 ± 155.4* 10^−12 g/ml
same,IgE,[3]; [8],0.13 ± 0.04 absorbance
same,IgG1,[3]; [8],2.41 ± 0.10 absorbance
same,TNF-α,[3]; [8],790.0 ± 194.1* 10^−12 g/ml
same,amount of NF-κB that enters into the nuclei,NF-κB,reduces the amount of NF-κB that enters into the nuclei
same,ALP activity,"MC3T3-E1 cells [4]; 10 nM, 3 days",112 ± 11%
same,ALP activity,"MC3T3-E1 cells [4]; 10 nM, 5 days",120 ± 18%
same,ALP activity,"MC3T3-E1 cells [4]; 10 nM, 10 days",125 ± 6%
same,ALP activity,"MC3T3-E1 cells [4]; 100 nM, 3 days",124 ± 17%
same,ALP activity,"MC3T3-E1 cells [4]; 100 nM, 5 days",126 ± 17%
same,ALP activity,"MC3T3-E1 cells [4]; 100 nM, 10 days",137 ± 16%
same,ALP activity,"MC3T3-E1 cells [4]; 1000 nM, 3 days",130 ± 21%
same,ALP activity,"MC3T3-E1 cells [4]; 1000 nM, 5 days",132 ± 16 %
same,ALP activity,"MC3T3-E1 cells [4]; 1000 nM, 10 days",150 ± 23 %
same,expression of nitric oxide synthase,[5]; FIG. 2A and 2B,reduce the expression of nitric oxide synthase
same,p50 and p65 entering into the nuclei,[5]; FIG. 3A to 3C,this effect can be inhibited by kinsenoside
same,the concentration of NO,macrophages RAW 264.7; kinsenoside 10 μM,15.5 ± 3.7 µM
same,the concentration of NO,macrophages RAW 264.7; kinsenoside 50 μM,12.0 ± 3.1 µM
same,the concentration of NO,macrophages RAW 264.7; kinsenoside 100 μM,8.4 ± 1.7 µM
same,Alizarin red-S,MC3T3-E1 cells [6]; 10 nM,137 ± 29%
same,Alizarin red-S,MC3T3-E1 cells [6]; 100 nM,137 ± 27%
same,Alizarin red-S,MC3T3-E1 cells [6]; 1000 nM,174 ± 42 %
